Measured values as given in patent US20080070892A1, “TREATING PAIN, DIABETES, AND DISORDERS OF LIPID METABOLISM” (priority 2006, published 2008).

What follows are compounds tested against T1, human CaV3.2 (Homo sapiens, UniProt O95180) (assay: IonWorks screen for hCaV3.2 (Cav3.2 Ionworks assay)). Conditions: read-out: IW hCav3 2 IC50.
T1 construct: expressed in transfected cells
Format: cell-based
Source text: Functional evaluation of voltage-gated ion channels was used to determine potency and/or single concentration efficacy of proprietary compounds. Two different methodologies were used to measure ion currents: the IonWorks HT (Molecular Devices, Sunnyvale, Calif.) a moderate throughput voltage clamp screening platform that utilizes 96-well compound plates and conventional whole cell patch clamp for lower throughput, higher fidelity determinations.
HEK cells were transiently transfected and then selected for stable heterologous expression of different channel proteins of interest. Calcium channel cell lines expressed a resting potassium current, human Kir2.1, and the pore forming α-subunit of voltage-gated calcium channels. In the case of CaV2.1 cells the auxiliary subunit, β2a, was also expressed. Calcium channel lines that were used to generate the data in this document expressed either human CaV3.2, rat CaV3.2 or human CaV2.1. The human heart sodium channel, hNaV1.5, was stably expressed in CHO cells. These cells were licensed from the University of Pennsylvania.
Cell lines were grown at 37° C. in humidified incubators, equilibrated with 95% air/5%0 CO2 CHO cells were grown in Ham's F-12 medium. HEK cells were grown in DMEM. All media were supplemented with 10% heat-inactivated fetal bovine serum, penicillin, streptomycin and appropriate selection antibiotics (zeocin, geneticin and/or hygromycin). Cells were passaged when 80% confluent or less.
IonWorks Screen for hCaV3.2
The extracellular buffer for experiments using this instrument contained the following (mM) (NaCl 125, HEPES 10, KCl 5.4, CaCl2 1.8, MgCl2 1.8, 0.2 BaCl2 pH 7.35). The IonWorks uses amphotericin to gain electrical access to the cell interior. The internal solution contained (mM concentrations): 130 K-gluconate, 20 KCl, 5 HEPES-KOH (pH 7.25), 2 CaCl2, 1 MgCl2. Amphotericin added at 5 mg in 65 ml when present (in 650 μl DMSO). All internal and external solutions for this experiment contain 1% DMSO. Cells were acutely trypsinized from a T-75 flask and resuspended in extracellular buffer at a density of 2×10^5 cells/ml.
Experiments were performed at room temperature. Transmembrane potential was held at −100 mV for 5 seconds prior to running the voltage protocol. During this time leak currents were measured during a step to −110 mV (200 milliseconds). T-type calcium currents were activated with a 250 millisecond step to −20 mV. This depolarization step was repeated for a total of 10 pulses with an interpulse interval of 1 second. Data were excluded if the following acceptance criteria were not met: total resistance for the pre-compound scan >65 MΩ, pre-compound current >250 pA, post compound total resistance >50 MΩ.
T-type currents were measured as the peak inward current minus the current at the end of the 250 msec step to −20 mV. After the recoding configuration was established there was a pre-compound measurement of current amplitude. Compound was added as a 3× solution containing 1% DMSO. After incubation with compound for 10 minutes currents were measured again. The current amplitude after compound addition was divided by the pre-compound current for pulse 10 to determine the fraction of current remaining after compound addition. For each compound, 8-point concentration-effect relationships were measured with ½ log serial dilutions.

T1 sequence (O95180 whole entry): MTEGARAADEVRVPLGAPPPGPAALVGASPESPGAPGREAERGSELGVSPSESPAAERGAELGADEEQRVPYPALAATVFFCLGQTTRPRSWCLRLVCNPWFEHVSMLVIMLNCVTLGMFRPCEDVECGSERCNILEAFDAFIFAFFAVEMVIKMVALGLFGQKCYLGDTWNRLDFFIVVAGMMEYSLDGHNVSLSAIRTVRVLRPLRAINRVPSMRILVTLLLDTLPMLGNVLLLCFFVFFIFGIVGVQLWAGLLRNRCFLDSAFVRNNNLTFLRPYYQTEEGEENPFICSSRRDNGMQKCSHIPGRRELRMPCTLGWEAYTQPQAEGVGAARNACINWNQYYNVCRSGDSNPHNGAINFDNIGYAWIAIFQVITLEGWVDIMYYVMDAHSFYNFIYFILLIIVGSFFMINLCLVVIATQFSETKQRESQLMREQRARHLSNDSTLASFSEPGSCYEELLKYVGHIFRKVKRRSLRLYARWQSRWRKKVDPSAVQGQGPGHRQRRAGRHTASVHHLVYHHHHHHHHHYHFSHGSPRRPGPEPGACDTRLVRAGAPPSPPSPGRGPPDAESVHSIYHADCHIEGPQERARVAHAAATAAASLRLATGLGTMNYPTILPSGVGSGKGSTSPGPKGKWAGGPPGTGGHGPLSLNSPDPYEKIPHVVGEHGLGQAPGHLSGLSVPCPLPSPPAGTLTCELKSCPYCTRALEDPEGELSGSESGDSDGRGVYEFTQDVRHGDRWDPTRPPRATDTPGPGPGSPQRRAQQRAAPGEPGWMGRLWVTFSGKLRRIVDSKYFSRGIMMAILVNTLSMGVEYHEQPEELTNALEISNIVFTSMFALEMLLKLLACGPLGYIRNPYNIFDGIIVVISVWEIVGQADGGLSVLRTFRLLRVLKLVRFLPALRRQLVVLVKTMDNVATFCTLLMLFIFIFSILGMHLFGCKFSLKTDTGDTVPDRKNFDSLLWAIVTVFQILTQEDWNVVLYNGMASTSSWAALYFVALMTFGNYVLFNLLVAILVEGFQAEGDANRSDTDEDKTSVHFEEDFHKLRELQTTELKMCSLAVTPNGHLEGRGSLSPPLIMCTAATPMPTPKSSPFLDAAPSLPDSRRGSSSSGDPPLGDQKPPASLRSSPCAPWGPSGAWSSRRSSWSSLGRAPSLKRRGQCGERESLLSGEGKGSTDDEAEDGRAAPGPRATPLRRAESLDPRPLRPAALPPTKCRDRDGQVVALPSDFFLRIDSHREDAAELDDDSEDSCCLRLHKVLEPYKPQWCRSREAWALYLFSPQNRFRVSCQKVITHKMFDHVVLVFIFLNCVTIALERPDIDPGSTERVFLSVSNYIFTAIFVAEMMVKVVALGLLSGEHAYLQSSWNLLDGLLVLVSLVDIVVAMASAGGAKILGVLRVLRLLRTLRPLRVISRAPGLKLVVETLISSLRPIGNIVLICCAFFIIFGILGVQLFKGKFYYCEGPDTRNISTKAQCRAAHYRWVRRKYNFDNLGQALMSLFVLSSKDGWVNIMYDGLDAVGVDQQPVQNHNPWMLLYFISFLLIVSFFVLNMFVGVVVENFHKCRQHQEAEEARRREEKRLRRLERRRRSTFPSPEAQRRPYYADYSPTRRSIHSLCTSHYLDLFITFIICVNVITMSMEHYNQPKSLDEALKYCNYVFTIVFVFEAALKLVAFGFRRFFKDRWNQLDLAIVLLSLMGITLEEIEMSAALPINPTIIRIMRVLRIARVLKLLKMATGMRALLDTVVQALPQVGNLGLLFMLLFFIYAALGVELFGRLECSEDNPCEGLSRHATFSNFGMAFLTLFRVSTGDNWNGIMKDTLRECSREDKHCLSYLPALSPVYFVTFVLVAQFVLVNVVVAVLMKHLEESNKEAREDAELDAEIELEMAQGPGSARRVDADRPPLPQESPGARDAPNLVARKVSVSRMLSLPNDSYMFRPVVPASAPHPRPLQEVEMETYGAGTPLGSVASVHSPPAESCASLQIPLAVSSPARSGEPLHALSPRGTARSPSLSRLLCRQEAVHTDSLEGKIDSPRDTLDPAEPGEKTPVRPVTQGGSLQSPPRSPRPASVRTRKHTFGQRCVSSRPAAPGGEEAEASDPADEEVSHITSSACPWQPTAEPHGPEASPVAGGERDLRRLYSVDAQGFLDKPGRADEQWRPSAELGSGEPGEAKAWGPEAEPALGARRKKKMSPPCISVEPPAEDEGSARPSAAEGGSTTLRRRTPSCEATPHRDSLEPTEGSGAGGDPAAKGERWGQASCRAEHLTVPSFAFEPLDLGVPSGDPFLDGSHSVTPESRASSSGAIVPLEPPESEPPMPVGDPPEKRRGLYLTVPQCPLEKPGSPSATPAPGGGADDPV

COC(=O)[C@@H](NC(=O)N1CCC2(CC1)CN(CC(C)C)C2c1ccc(Cl)cc1)C(C)C (stereo partly shown) and CC[C@H](C)[C@H](NC(=O)N1CCC2(CC1)CN(CC(C)C)C2c1ccc(Cl)cc1)C(=O)OC (stereo partly shown) are within 1.5-fold of each other in IC50: 32 nM for the first, 26 nM for the second.

CC[C@H](C)[C@H](NC(=O)N1CCC2(CC1)CN(c1ccc(F)cc1)C2c1ccc(Cl)cc1)C(=O)OC (stereo partly shown) and CC(C)N1CC2(CCN(C(=O)Nc3ccc(F)cc3)CC2)C1c1ccc(Cl)cc1 (single isomer, unassigned) are within 1.5-fold of each other in IC50: 77 nM for the first, 69 nM for the second.

Going from O=C(C1CCCCC1)N1CCC2(CC1)CN(C(=O)C1(c3ccc(Cl)cc3)CCCC1)C2c1ccccc1 (stereo not shown) to CC(C)N1CC2(CCN(C(=O)Nc3cc(F)cc(F)c3)CC2)C1c1ccc(Cl)cc1 (single isomer, unassigned), the IC50 falls from 376 nM to 32 nM (12-fold).

Compared with COC(=O)[C@H](CC(C)C)NC(=O)N1CCC2(CC1)CN(CC(C)C)C2c1ccc(Cl)cc1 (stereo partly shown), COC(=O)[C@H](CC(C)C)NC(=O)N1CCC2(CC1)CN(C(C)C)C2c1ccc(Cl)cc1 (stereo partly shown) is 2.8-fold higher in IC50: 23 nM for the first, 65 nM for the second. The first is the more potent here.

The compounds below were run against T2, human-SP9215 (GPR119) (Homo sapiens, UniProt Q8TDV5) (assay: GPR119 screening assay (LANCE cAMP)). Conditions: HEK 293 cells stably transfected with human GPR119, read-out: GPR 119 cAMP IC50.
T2 construct: expressed in transfected cells
T2 sequence (Q8TDV5 1-335): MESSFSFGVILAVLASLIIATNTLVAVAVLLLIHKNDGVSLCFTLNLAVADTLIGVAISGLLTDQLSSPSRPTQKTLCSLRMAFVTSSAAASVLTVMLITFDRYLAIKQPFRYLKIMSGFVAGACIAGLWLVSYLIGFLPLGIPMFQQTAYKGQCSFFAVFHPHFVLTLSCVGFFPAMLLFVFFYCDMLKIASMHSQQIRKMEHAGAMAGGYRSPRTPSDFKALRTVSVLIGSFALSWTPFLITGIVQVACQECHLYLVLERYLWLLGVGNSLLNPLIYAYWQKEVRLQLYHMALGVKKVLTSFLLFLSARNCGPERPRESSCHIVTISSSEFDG
Format: cell-based
Experimental: • +100 mg BSA (MP Biomedicals faction V, #103703)=0.1% • +500 ul 1M HEPES (Cellgro #25-060-CI)=5 mM • +75 ul RO-20 (Sigma B8279; 20 mM stock in DMSO stored in aliquots at −20 C)=15 uM • (made fresh daily) B84 (N-[4-(methylsulfonyl)phenyl]-5-nitro-6-[4-(phenylthio)-1-piperidinyl]-4-pyrimidinamine, see WO 2004/065380). A 10 mM stock solution of the test compound in DMSO was prepared, aliquoted and stored at −20 C. For Totals—Dilute 1:33.3 in DMSO then 1:50 in Stimulation Buffer=6 uM in 2% DMSO (=3 uM B84 and 1% DMSO final). For Dose Response Curve—3 ul stock+7 ul DMSO+490 ul Stim Buffer=60 uM in 2% DMSO (=30 uM B84 and 1% DMSO final). (made fresh daily). Cell Line: Human clone 3. HEK 293 cells stable transfected with human-SP9215 (GPR119)/pcDNA3.1 and also stable for pCRELuc, Stratagene. Cells are maintained in DMEM containing 10% FBS (invitrogen #02-4006Dk, lot #1272302, heat inactivated), 1×MEM, 1× Pen/Strep, 0.1 mg/ml Hygromycin 6, and […] G418. Cells are split 1:8 twice per week. cAMP Kit: LANCE™ cAMP 384 kit, Perkin Elmer #AD0263 Compound Dilutions: • Add DMSO to vials containing compounds to yield a 1 mg/ml solution. • 1. Dilute compounds to 60 μM in Stimulation buffer. Make ½ log dilutions into Stimulation buffer containing 2% DMSO using the epMotion robot. 10 point dose response curve 1 nM to 30 uM. • 2. Compounds are run in quadruplicate, 2 separate dilutions for each, sets 1 and 1a. Assay Procedure: • 1. The afternoon before the assay, replace the media in the flask of Human clone 3 cells with Optimem. (Gibco #11058-021) NOTE: cells should be in culture 6-8 days. • 2. Next morning, pipette the cells gently off the flask using HBSS (RT). • 3. Pellet the cells (1300 rpm, 7 min, RT) and resuspend in Stimulation Buffer at […] (=5-8,000 cell/6 ul). Add 1:100 dilution of Alexa Fluor 647-anti cAMP antibody (provided in the kit) directly to the cell suspension. • 4. Into white 384-well plates (Matrix) add 6 ul of 2× B84, cmpds or stim buffer for nsb. They all contain 2% DMSO (=1% DMSO final). • 5. Add 6 ul of the cell suspension to the wells. Incubate 30 minutes RT. • 6. For the std curve add 6 ul cAMP std solution diluted in Stim Buffer+2% DMSO according to kit directions (1000-3 nM). Add 6 ul of 1:100 anti-cAMP dilution in Stim Buffer to std wells. • 7. Make Detection Mix according to kit instructions and incubate 15 min RT. • 8. Add 12 ul Detection Mix to all the wells. Mix gently by tapping and incubate 2-3 hrs RT. • 9. Read on the Envision under the protocol “Lance/Delphia cAMP” • 10. Values (nM) for each sample are determined by extrapolation from the std curve. % Control, Fold and EC50 (Control=3 uM B84) are determined for each compound, averaging sets 1 and 1a. Results

CC(C)CN1CC2(CCN(C(=O)c3ccc4c(c3)OCCCO4)CC2)C1c1ccccc1 (stereo not shown) and CC(C)CN1CC2(CCN(C(=O)c3ccc4c(c3)OCCCO4)CC2)C1c1ccc(Cl)cc1 (stereo not shown) are within 1.5-fold of each other in IC50: 1920 nM for the first, 2620 nM for the second.

Compared with O=C(c1ccc2c(c1)OCCCO2)N1CCC2(CC1)CN(Cc1ccccc1Cl)C2c1ccc(Cl)cc1 (stereo not shown), O=C(c1ccc2c(c1)OCCCO2)N1CCC2(CC1)CN(c1ccc(F)cc1)C2c1ccc(Cl)cc1 (stereo not shown) is 1.7-fold lower in IC50: 2770 nM for the first, 1640 nM for the second.

For O=C(c1ccc2[nH]cnc2c1)N1CCC2(CC1)CN(Cc1ccccc1Cl)C2c1ccccc1 (stereo not shown), the IC50 was 2980 nM.
